Experimental findings from patent US20100160178A1, “SYSTEM AND METHOD FOR PRESENTING DNA BINDING SPECIFICITIES USING SPECIFICITY LANDSCAPES” (priority 2008, published 2010) are described below.

The subject of assay [1] is duplex DNA microarray that displays the entire sequence space. In words: CSI (cognate site identifier) array and specificity landscape of the polyamide. It is filed as binding. An excerpt:
(§1) CSI arrays can display the entire sequence space for about 2-10 variable base pair positions. Additionally, CSI arrays can display the entire sequence space for more than 10 base pair positions. Data relating to the binding affinities between the binding molecule and a sample set of DNA sequences (“N-mers”) has been obtained from the CSI DNA microarrays, in which every N-mer sequence is correlated to a fluorescent intensity value. The fluorescent intensity value indicates the amount of interaction between a specific N-mer and the DNA-binding molecule of interest and is proportional to binding affinity. The affinity value is the form of an equilibrium association constant (KA), or a KD value may be converted to KA by the relationship of KA=1/KD. Any biochemical/biophysical technique, other than DNA microarrays, can be used to obtain binding affinities, but these affinities must be related to a specific DNA sequence to be appropriate input for the specificity landscape.
This particular approach is an example of the data input to the specificity landscape algorithm. In particular, the present approach provides a comprehensive and unbiased understanding of the sequence-specificity of DNA binding molecules. Structural DNA variants are all examined to explore the importance of DNA structure on cognate site recognition by these ligands (data not shown). This particular example examines sequences and structural preferences of a small molecule polyamide (ImImPy*Py-γ-PyPyPyPy-β-Dp) designed to recognize the sequence 5′-W-W-G-G-W-W-W-3′ (W=A or T). […] The more distorted, or non-duplex, the DNA becomes the less affinity the polyamide has for that particular DNA sequence. Based upon previous knowledge of this polyamide, the specificity landscape unexpectedly uncovered unique insight into the polyamide relating to sequence and structural specificity of the polyamide-DNA interactions. […] The relative affinity of a particular sequence is represented by the height of the peak. The landscape provides a valuable tool to researchers looking for both the consensus sequences as well as those with the highest affinity.
Each sequence on the array is given a z-score which indicates the probability of a sequence being preferentially bound by the polyamide. As such, each sequence on the array has an intensity denoting the affinity of the polyamide to the sequence. The z-score is calculated using Equation Set 1. The sequences in the highest z-score bins, or with the highest intensities, fit the 5′-W-W-G-G-W-W-W-3′
Z=|intensity−average|/standard deviation Equation Set 1
The cognate site identifier array is a high through put approach for providing a comprehensive profile of the binding properties of DNA-binding molecules. CSI arrays display every permutation of a duplex DNA sequence on a microfabricated array. The CSI is a standard type array where each square (microarray feature) is assigned a specific nucleotide sequence, which includes a linker and a palindromic sequence with a 3-5 nucleotide turn in the middle. This palindromic sequence forms a double-stranded DNA region comprised of, for example, 8 base pairs that represents a specific permutation of an 8mer sequence. The central region of the sequence is buried, by example all or a subset of, 8 base pairs for a given 8-mer sequence. Approximately one million of the same sequences are provided for each square, each being one of the possible 8-mer sequences. A fluorescently labeled compound or antibody is included. […]

The test system of assay [2] is every possible 9-mer DNA sequence. In words: CSI array and specificity landscape of Nkx-2.5. It is filed as binding.
Source text: as §1
The cognate site identifier array is a high through put approach for providing a comprehensive profile of the binding properties of DNA-binding molecules. CSI arrays display every permutation of a duplex DNA sequence on a microfabricated array. […]

The test system of the next assay is DNA sequences. Briefly: Specificity landscapes of DNA-binding proteins (FIGS. 8-10). Particulars: circular specificity landscape.

With ImImPy*Py-γ-PyPyPyPy-β-Dp [polyamide], the “base preference at position 5” value in assay [1] is recorded as “prefers a T at position 5”. The DNA conformer preference entry in assay [1] (B-form duplex vs structural DNA variants) is “prefers double-stranded DNA”. In addition, the “affinity across permutations of the consensus motif WWGGWWW” value in assay [1] (innermost ring (Ring 1) of landscape) was “does not bind all the permutations of the consensus motif (WWGGWWW) with equal affinity”. For the same molecule, the “positions of the motif where mutations are tolerated” value in assay [1] (one mismatch ring) was “tolerates mutations at positions 1 and 3”. The “binding to non-B-form DNA bearing high affinity sequences” value in assay [1] (relative to the duplex) is “appreciable binding”.
Regarding “Nkx-2.5: Nk2 transcription factor related, locus 5; earliest heart lineage marker; mouse DNA-binding protein”, in assay [2], the “DNA binding motif from specificity landscape” value was “TNAAGTG and NTAAGTG”. Besides, the “binding of sequences identical to motif TTAAGTG” value in assay [2] (relative intensities, all possible 9-mers) is given as “bind well”.
As for gata4: mouse protein gata4, the DNA sequence bound in the assay with DNA sequences was 5′-WGATAA-3′.

B1: msn2: yeast protein msn2 (protein, UniProt P33748 1-704, looked up)
Zinc finger protein MSN2: MTVDHDFNSEDILFPIESMSSIQYVENNNPNNINNDVIPYSLDIKNTVLDSADLNDIQNQETSLNLGLPPLSFDSPLPVTETIPSTTDNSLHLKADSNKNRDARTIENDSEIKSTNNASGSGANQYTTLTSPYPMNDILYNMNNPLQSPSPSSVPQNPTINPPINTASNETNLSPQTSNGNETLISPRAQQHTSIKDNRLSLPNGANSNLFIDTNPNNLNEKLRNQLNSDTNSYSNSISNSNSNSTGNLNSSYFNSLNIDSMLDDYVSSDLLLNDDDDDTNLSRRRFSDVITNQFPSMTNSRNSISHSLDLWNHPKINPSNRNTNLNITTNSTSSSNASPNTTTMNANADSNIAGNPKNNDATIDNELTQILNEYNMNFNDNLGTSTSGKNKSACPSSFDANAMTKINPSQQLQQQLNRVQHKQLTSSHNNSSTNMKSFNSDLYSRRQRASLPIIDDSLSYDLVNKQDEDPKNDMLPNSNLSSSQQFIKPSMILSDNASVIAKVATTGLSNDMPFLTEEGEQNANSTPNFDLSITQMNMAPLSPASSSSTSLATNHFYHHFPQQGHHTMNSKIGSSLRRRKSAVPLMGTVPLTNQQNNISSSSVNSTGNGAGVTKERRPSYRRKSMTPSRRSSVVIESTKELEEKPFHCHICPKSFKRSEHLKRHVRSVHSNERPFACHICDKKFSRSDNLSQHIKTHKKHGDI
Take B1: the DNA sequence bound in the assay on DNA sequences is listed as 5′-ARGGG-3′.
